Measurements taken from patent publication US12473296B2, “Perk inhibiting compounds” (HiberCell, Inc., priority 2019, dated 2025).

Legend:
[1] = biological target: EIF2AK3 (PERK) catalytic domain (amino acids 536-1116) (Homo sapiens (Human), UniProt Q9NZJ5); assay: PERK in vitro activity assay (isolated), TR-FRET kinase assay; settings: isolated PERK enzyme, 1.5 μM ATP, GFP-eIF2a substrate; read-out: Biochemical IC50
Procedure, shortened: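 Human PERK catalytic domain (aa 536-1116) with 100-200 nM GFP-eIF2a in 50 mM HEPES pH 7.5, 10 mM MgCl2, 1.0 mM EGTA, 0.01% Brij-35; enzyme-started reaction run 45 min at room temperature. Stopped with 10 mM EDTA, 2 nM Tb-anti-phospho-eIF2a added for 90 min; IC50 from TR-FRET ratio by 4-parameter logistic fit.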

PERK = PERK (Homo sapiens (Human), UniProt Q9NZJ5); assay: PERK cellular assay (TR-FRET, HEK293-EGFP-eIF2α cells, tunicamycin-induced ER stress); type: cell-based; settings: tunicamycin 2 hours, read-out: Cellular IC50 (μM) (EIF2a)
Procedure, shortened: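 After 2 h tunicamycin ([…]) stress following 30 min compound pretreatment at 37 °C, lysed HEK293-EGFP-eIF2α cells were read by TR-FRET. IC50 derived by 4-parameter logistic fitting of percent inhibition, DMSO-normalized, from 10-point 3-fold dilutions.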

Sequence of PERK (Q9NZJ5 30-1116): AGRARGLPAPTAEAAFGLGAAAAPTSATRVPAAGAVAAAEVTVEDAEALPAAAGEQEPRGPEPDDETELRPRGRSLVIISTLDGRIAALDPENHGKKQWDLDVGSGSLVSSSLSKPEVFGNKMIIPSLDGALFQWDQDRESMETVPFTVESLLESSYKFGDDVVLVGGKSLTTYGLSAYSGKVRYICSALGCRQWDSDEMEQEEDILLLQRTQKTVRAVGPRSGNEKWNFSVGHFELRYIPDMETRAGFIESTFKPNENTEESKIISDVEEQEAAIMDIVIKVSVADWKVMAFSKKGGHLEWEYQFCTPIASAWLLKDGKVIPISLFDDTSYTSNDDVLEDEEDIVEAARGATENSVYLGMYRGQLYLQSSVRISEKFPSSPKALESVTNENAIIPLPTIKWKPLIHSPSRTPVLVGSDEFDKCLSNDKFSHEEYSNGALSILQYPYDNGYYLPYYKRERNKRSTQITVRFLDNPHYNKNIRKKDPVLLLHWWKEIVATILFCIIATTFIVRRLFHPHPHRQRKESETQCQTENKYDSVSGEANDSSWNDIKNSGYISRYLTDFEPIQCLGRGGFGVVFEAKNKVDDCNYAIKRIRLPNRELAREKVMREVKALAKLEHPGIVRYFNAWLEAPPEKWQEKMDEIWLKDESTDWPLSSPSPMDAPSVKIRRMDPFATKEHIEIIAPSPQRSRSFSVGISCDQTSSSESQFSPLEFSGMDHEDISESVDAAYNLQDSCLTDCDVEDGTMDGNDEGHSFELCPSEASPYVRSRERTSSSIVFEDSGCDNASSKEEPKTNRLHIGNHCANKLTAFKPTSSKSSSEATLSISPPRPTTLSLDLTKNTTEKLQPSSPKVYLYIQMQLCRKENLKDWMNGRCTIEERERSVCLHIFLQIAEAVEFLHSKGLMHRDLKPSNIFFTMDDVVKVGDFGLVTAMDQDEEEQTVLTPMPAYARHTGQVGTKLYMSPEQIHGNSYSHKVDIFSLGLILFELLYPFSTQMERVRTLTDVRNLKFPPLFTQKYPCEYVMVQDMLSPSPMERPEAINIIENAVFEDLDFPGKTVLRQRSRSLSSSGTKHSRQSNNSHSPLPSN
Sequence of EIF2AK3 (PERK) catalytic domain (amino acids 536-1116) (Q9NZJ5 536-1116): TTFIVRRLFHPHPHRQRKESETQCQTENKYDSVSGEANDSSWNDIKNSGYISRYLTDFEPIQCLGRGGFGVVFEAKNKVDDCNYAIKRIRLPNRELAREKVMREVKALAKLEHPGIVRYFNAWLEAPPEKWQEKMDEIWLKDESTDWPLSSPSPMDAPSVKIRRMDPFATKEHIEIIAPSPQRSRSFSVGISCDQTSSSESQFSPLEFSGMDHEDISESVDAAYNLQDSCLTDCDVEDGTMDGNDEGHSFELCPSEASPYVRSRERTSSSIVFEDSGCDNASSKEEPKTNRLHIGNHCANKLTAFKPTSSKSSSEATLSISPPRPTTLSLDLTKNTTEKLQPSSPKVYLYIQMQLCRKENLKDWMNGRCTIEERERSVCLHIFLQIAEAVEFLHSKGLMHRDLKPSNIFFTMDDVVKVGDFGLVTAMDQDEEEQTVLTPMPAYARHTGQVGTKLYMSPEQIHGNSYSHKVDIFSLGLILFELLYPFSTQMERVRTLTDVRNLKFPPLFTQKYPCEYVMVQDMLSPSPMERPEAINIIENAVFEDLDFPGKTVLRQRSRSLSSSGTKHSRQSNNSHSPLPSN

SMILES	IC50 [1]	IC50 (PERK)
Cc1cc(NC(=O)C(O)c2cc(F)cc(F)c2)c(F)cc1-c1cnc(N)c(C(=O)NC(C)C)c1 (stereo not drawn) [Example 125, 2-amino-5-(4-(2-(3,5-difluorophenyl)-2-hydroxyacetamido)-5-fluoro-2-methylphenyl)-N-isopropylnicotinamide]	0.101 to 0.25 µM	0.501 to 1 µM
CC(C)NC(=O)c1cc(-c2ccc(NC(=O)C(O)c3cc(F)cc(F)c3)c(F)c2Cl)cnc1N (stereo not drawn) [Example 124, 2-amino-5-(2-chloro-4-(2-(3,5-diflouorophenyl)-2-hydroxyacetamido)-3-fluorophenyl)-N-isopropylnicotinamide]	0.026 to 0.05 µM	0.051 to 0.1 µM
Nc1ncc(-c2ccc(NC(=O)C(O)c3cc(F)cc(F)c3)cc2Cl)nc1C(=O)NC1COC1 (stereo not drawn) [Example 169, 3-amino-6-(2-chloro-4-(2-(3,5-difluorophenyl)-2-hydroxyacetamido)phenyl)-N-(oxetan-3-yl)pyrazine-2-carboxamide]	0.001 to 0.025 µM	0.001 to 0.025 µM
CCc1cc(NC(=O)C(O)c2cc(F)cc(F)c2)ccc1-c1cnc(N)c(C(=O)NCC(F)(F)F)n1 (single isomer, unassigned) [Example 155, 3-amino-6-(4-(2-(3,5-difluorophenyl)-2-hydroxyacetamido)-2-ethylphenyl)-N-(2,2,2-trifluoroethyl) pyrazine-2-carboxamide]	0.101 to 0.25 µM	0.101 to 0.25 µM
CCNC(=O)c1cc(-c2ccc(NC(=O)C(O)c3cc(F)cc(F)c3)c(F)c2C)cnc1N (stereo not drawn) [Example 118, 2-amino-5-(4-(2-(3,5-difluorophenyl)-2-hydroxyacetamido)-3-fluoro-2-methylphenyl)-N-ethylnicotinamide]	0.001 to 0.025 µM	0.026 to 0.05 µM
Cc1cc(NC(=O)C(C)(O)c2ccccc2)ccc1-c1cnc(N)c(C(=O)NC(C)C)c1 (stereo not drawn) [Example 4, 2-amino-5-(4-(2-hydroxy-2-phenylpropanamido)-2-methylphenyl)-N-isopropylnicotinamide]	0.101 to 0.25 µM	3 to 4 µM
Cc1cc(NC(=O)C(N)c2ccccc2)ccc1-c1cnc(N)c(C(=O)NC(C)C)c1 (stereo not drawn) [Example 6, 2-amino-5-(4-(2-amino-2-phenylacetamido)-2-methylphenyl)-N-isopropyl-nicotinamide]	1 to 2 µM	3 to 4 µM
CCc1cccc(C(O)C(=O)Nc2ccc(-c3cnc(N)c(C(=O)NC(C)C)c3)c(Cl)c2)c1 (stereo not drawn) [Example 95, 2-amino-5-(2-chloro-4-(2-(3-ethylphenyl)-2-hydroxyacetamido)phenyl)-N-isopropylnicotinamide]	0.026 to 0.05 µM	0.101 to 0.25 µM
CNC(=O)c1cc(-c2ccc(NC(=O)C(O)c3cc(F)cc(F)c3)cc2C)cnc1N (single isomer, unassigned) [Example 10, 2-amino-5-(4-(2-(3,5-difluorophenyl)-2-hydroxyacetamido)-2-methylphenyl)-N-methylnicotinamide]	0.001 to 0.025 µM	0.051 to 0.1 µM
Cc1cc(NC(=O)Cc2cccc3ccccc23)ccc1-c1cnc(N)c(C(=O)NC(C)C)c1 [Example 207, 2-amino-N-isopropyl-5-(2-methyl-4-(2-(naphthalen-1-yl)acetamido)phenyl)nicotinamide]	0.001 to 0.025 µM	0.251 to 0.5 µM
Cc1cc(NC(=O)C(O)c2cc(F)cc(F)c2)ccc1-c1cnc(N)c(C(=O)NC2CC2)c1 (stereo not drawn) [Example 15, 2-amino-N-cyclopropyl-5-(4-(2-(3,5-difluorophenyl)-2-hydroxyacetamido)-2-methylphenyl) nicotinamide]	0.026 to 0.05 µM	0.251 to 0.5 µM
CC(C)NC(=O)c1cc(-c2ccc(NC(=O)C(O)c3cc(F)cc(F)c3)cc2F)cnc1N (stereo not drawn) [Example 33, 2-amino-5-(4-(2-(3,5-difluorophenyl)-2-hydroxyacetamido)-2-fluorophenyl)-N-isopropylnicotinamide]	0.101 to 0.25 µM	0.251 to 0.5 µM
Cc1ccc(-c2ccc(NC(=O)C(O)c3cc(F)cc(F)c3)cc2C)cn1 (stereo not drawn) [Example 181, 2-(3,5-difluorophenyl)-2-hydroxy-N-(3-methyl-4-(6-methylpyridin-3-yl)phenyl)acetamide]	> 5 µM	> 5 µM
Cc1ccc(-c2ccc(NC(=O)C(O)c3cc(F)cc(F)c3)cc2C)cn1 (stereo not drawn) [Example 180, 2-(3,5-difluorophenyl)-2-hydroxy-N-(3-methyl-4-(6-methylpyridin-3-yl)phenyl)acetamide]	1 to 2 µM	> 5 µM
Cc1cc(NC(=O)C(O)c2cc(F)cc(F)c2)ccc1-c1cnc(N)c(C(=O)NC2CC2)n1 (stereo not drawn) [Example 139, 3-amino-N-cyclopropyl-6-(4-(2-(3,5-difluorophenyl)-2-hydroxyacetamido)-2-methylphenyl) pyrazine-2-carboxamide]	0.001 to 0.025 µM	0.251 to 0.5 µM
CCc1cc(NC(=O)C(O)c2cc(F)cc(F)c2)ccc1-c1cnc(N)c(C(=O)NCC(F)(F)F)c1 (stereo not drawn) [Example 101, 2-amino-5-(4-(2-(3,5-difluorophenyl)-2-hydroxyacetamido)-2-ethylphenyl)-N-(2,2,2-trifluoroethyl) nicotinamide]	0.001 to 0.025 µM	0.051 to 0.1 µM
CCc1ccc(CC(=O)Nc2ccc(-c3cnc(N)c(C(=O)NC(C)C)c3)c(C)c2)cc1 [Example 206, 2-amino-5-(4-(2-(4-ethylphenyl)acetamido)-2-methylphenyl)-N-isopropylnicotinamide]	0.251 to 0.5 µM	2 to 3 µM
Cc1cc(NC(=O)Cc2ccc3ncccc3c2)ccc1-c1cnc(N)c(C(=O)NC(C)C)c1 [Example 209, 2-amino-N-isopropyl-5-(2-methyl-4-(2-(quinolin-6-yl)acetamido)phenyl)nicotinamide]	0.101 to 0.25 µM	1 to 2 µM
Cc1c(-c2cnc(N)c(C(=O)NC(C)C)c2)ccc(NC(=O)C(O)c2cc(F)cc(F)c2)c1F (stereo not drawn) [Example 115, 2-amino-5-(4-(2-(3,5-difluorophenyl)-2-hydroxyacetamido)-3-fluoro-2-methylphenyl)-N-isopropylnicotinamide]	0.001 to 0.025 µM	0.001 to 0.025 µM
COC(C(=O)Nc1ccc(-c2cnc(N)c(C(=O)NC(C)C)c2)c(C)c1)c1ccccc1 (stereo not drawn) [Example 5, 2-amino-N-isopropyl-5-(4-(2-methoxy-2-phenylacetamido)-2-methylphenyl) nicotinamide]	1 to 2 µM	3 to 4 µM
CCc1cc(NC(=O)C(O)c2cccc(C(F)(F)F)c2)ccc1-c1cnc(N)c(C(=O)NC(C)C)c1 (stereo not drawn) [Example 111, 2-amino-5-(2-ethyl-4-(2-hydroxy-2-(3-(trifluoromethyl)phenyl)acetamido)phenyl)-N-isopropylnicotinamide]	0.101 to 0.25 µM	0.101 to 0.25 µM
Cc1cc(NC(=O)C(O)c2cccc(C(F)(F)F)c2)ncc1-c1cnc(N)c(C(=O)NC(C)C)c1 (stereo not drawn) [Example 127, 6-amino-6′-(2-hydroxy-2-(3-(trifluoromethyl)phenyl)acetamido)-N-isopropyl-4′-methyl-[3,3′-bipyridine]-5-carboxamide]	0.251 to 0.5 µM	> 5 µM
CCc1cccc(C(O)C(=O)Nc2ccc(-c3cnc(N)c(C(=O)NC(C)C)c3)c(C)c2)c1 (single isomer, unassigned) [Example 72, 2-amino-5-(4-(2-(3-ethylphenyl)-2-hydroxyacetamido)-2-methylphenyl)-N-isopropylnicotinamide]	0.001 to 0.025 µM	0.001 to 0.025 µM
Cc1c(-c2cnc(N)c(C(=O)NC3CC3)c2)ccc(NC(=O)C(O)c2cc(F)cc(F)c2)c1F (stereo not drawn) [Example 120, 2-amino-N-cyclopropyl-5-(4-(2-(3,5-difluorophenyl)-2-hydroxyacetamido)-3-fluoro-2-methylphenyl) nicotinamide]	0.001 to 0.025 µM	0.051 to 0.1 µM
CC(C)NC(=O)c1cc(-c2ccc(NC(=O)C(O)c3cc(F)cc(F)c3)cc2OC(F)(F)F)cnc1N (stereo not drawn) [Example 114, 2-amino-5-(4-(2-(3,5-difluorophenyl)-2-hydroxyacetamido)-2-(trifluoromethoxy)phenyl)-N-isopropylnicotinamide]	0.251 to 0.5 µM	> 5 µM
Cc1cc(NC(=O)C(O)c2cc(F)cc(F)c2)ccc1-c1cnc(N)c(C(=O)NCC(C)C)c1 (stereo not drawn) [Example 21, 2-amino-5-(4-(2-(3,5-difluorophenyl)-2-hydroxyacetamido)-2-methylphenyl)-N-isobutylnicotinamide]	0.101 to 0.25 µM	0.251 to 0.5 µM
Cc1c(-c2cnc(N)c(C(=O)NC3CC3)c2)ccc(NC(=O)C(O)c2cc(F)cc(F)c2)c1F (stereo not drawn) [Example 119, 2-amino-N-cyclopropyl-5-(4-(2-(3,5-difluorophenyl)-2-hydroxyacetamido)-3-fluoro-2-methylphenyl) nicotinamide]	0.001 to 0.025 µM	0.001 to 0.025 µM
CC(C)NC(=O)c1cc(-c2ccc(NC(=O)C(O)c3cc(F)cc(F)c3)cc2Cl)cnc1N (single isomer, unassigned) [Example 34]	0.001 to 0.025 µM	0.001 to 0.025 µM
CCc1cc(NC(=O)C(O)c2cc(F)cc(F)c2)ccc1-c1cnc(N)c(C(=O)NC2CC2)n1 (stereo not drawn) [Example 156, 3-amino-N-cyclopropyl-6-(4-(2-(3,5-difluorophenyl)-2-hydroxyacetamido)-2-ethylphenyl)pyrazine-2-carboxamide]	0.001 to 0.025 µM	0.001 to 0.025 µM
Cc1cc(NC(=O)C(O)c2cccc(C(F)(F)F)c2)ncc1-c1cnc(N)c(C(=O)NC(C)C)c1 (stereo not drawn) [Example 128, 6-amino-6′-(2-hydroxy-2-(3-(trifluoromethyl)phenyl)acetamido)-N-isopropyl-4′-methyl-[3,3′-bipyridine]-5-carboxamide]	0.051 to 0.1 µM	> 5 µM
